From patent US20060167021A1, “Inhibition of src for treatment of reperfusion injury related to revascularization” (Caritas St. Elizabeth's Medical Center of Boston, Inc., priority 2002, published 2006)
“And” between values parts separate entries of the source, which are not always exact repeats. Equal values may be shown once.

Columns and labels:
[1] = tested on: Sprague-Dawley rats; assay: Rat acute MI model (permanent LAD ligation), infarct size by Evans blue/TTC; type: in vivo
Description: (§1) Generally, myocardial Infarction (MI) was induced by ligating the left anterior descending (LAD) coronary artery in Sprague-Dawley rats or in C57 black mice. Intraperitoneal injections of the inhibitors were delivered after the induction of infarction. High resolution magnetic resonance imaging (MRI), dry weight measurements, infarct size, heart volume and area at risk were determined 24 hours after induction of MI. Survival rates and echocardiography were determined at 4 weeks post-MI.
(§2) After 24 hours, 10% Evans blue (Sigma, St. Louis, Mo.) was injected intravenously before sacrifice. Hearts were removed and cut in three equivalent sections distal to the occluding LAD suture and one proximal. The distal sections were digitized to evaluate the nonperfused area at risk using NIH Image software. Sections were stained with 2% triphenyltetrazolium chloride ([…]) (Sigma, St. Louis, Mo.) to delineate ischemic area. Infarct size is presented as the percentage of area at risk to eliminate variability. For example, the area at risk (AAR) is measured as a function of (white+red area)/(blue+white+red area); the % infarct is measured as a function of (white area (% of LV area))/(blue+white+red area); and the % infarct/AAR is calculated as a function of (white area (% of AAR))/(white+red area).
Essentially, MI was induced in rats as described above. […] Control rats were mock-treated with the dimethylsulfoxide (DMSO) vehicle. Tests were performed 24 hours post-MI induction.
To study the kinetics of this response, PP1 was administered at various times following occlusion. Essentially, MI was induced in rats as described above. […] Control rats were mock-treated with the dimethylsulfoxide (DMSO) vehicle. Tests were performed 24 hours post-MI induction.

[2] = tested on: C57 black mice; assay: Mouse MI model (permanent occlusion), infarct size; type: in vivo
Description: as §1, §2

[3] = tested on: Sprague-Dawley rats; assay: Ex-vivo myocardial water content (wet/dry weights); type: in vivo, rat
Description: (§3) In-vivo water content was evaluated using MRI performed serially on anesthetized rats 24 hours following MI using a 4.7-T MR scanner (Bruker Billerica Mass.). […] MRI experiments to quantify T2 values of the myocardium were conducted by applying an ECG and respiratory-triggered multiecho spin echo sequence (number of echoes, 8; echo time, 6.6 ms; slice thickness, 1.0 mm; inplane resolution, 430 μm^2; total slices, 6-7). The trigger delay was chosen to capture all echoes during full diastole to avoid motion artifact between echoes. Corresponding gradient echo images were also acquired for each slice to clearly delineate the blood/myocardium border for region of interest evaluation of the spin echo sequence. Because of their increased water content, edematous regions are expected to have a longer T2 relaxation than nonedematous regions. Regions with T2>40 ms (two standard deviations above the mean of normally perfused myocardium) were delineated and the volume calculated as a percentage of the total LV myocardial volume. In addition, ex-vivo myocardial water content of proximal heart sections was measured as the percentage difference between initial wet and dry weights after 24 hours incubation at 80° C. Transthoracic echocardiography (SONOS 5500, Agilent Technologies, Palo Alto, Calif.) was performed to evaluate LV function before (baseline) and 4 weeks after MI. For this analysis, rats were anesthetized with 0.6 ml/kg ketamine intraperitoneally.
Rats were treated with 0.5 mg/kg, 1.5 mg/kg, or a placebo post-MI induction and the myocardial water content was compared.

[4] = tested on: Sprague-Dawley rats; assay: In-vivo MRI T2 mapping of edematous myocardium; design: species or system rat
Description: Because of their increased water content edematous regions are expected to have a longer 72 relaxation than nonedematous regions. As a result, T2 maps of the myocardium can be used as an index of water content. Regions with T2>40 ms (two standard deviations above normally perfused myocardium) were delineated as an index of edema.
Because of their increased water content, edematous regions are expected to have a longer T2 relaxation than nonedematous regions and therefore T2 maps of the myocardium can be used as an index of water content. Regions with T2>40 ms (two standard deviations above normally perfused myocardium) were delineated as an index of edema.

[5] = tested on: Sprague-Dawley rats; assay: Echocardiography 4 weeks post-MI; type: in vivo, rat
Description: as §3
MI was induced in rats as described above. […] Tests were performed 24 hours post-MI induction. Four weeks post-MI, fraction shortening was assessed by echocardiography.

[6] = tested on: Sprague-Dawley rats; assay: Rat ischemia/reperfusion model (echocardiography, Evan's blue & TTC staining at 24 hours); type: in vivo; design: LVDd / LVDs / AAR: unit not given beside the values
Description: as §2, §3
To establish whether Src inhibition is beneficial following transient ischemia, rats were subjected to occlusion followed by reperfusion, and then evaluated for ventricular function and infarct size after 24 hours. […] Subjects were evaluated with echocardiography (FIGS. 13 and 18) and TTC staining (FIGS. 14 and 18) 24 hours after occlusion (Table 7).

[7] = tested on: mouse cardiac tissue; assay: Ultrastructural analysis of cardiac tissue by electron microscopy after MI; type: in vivo; conditions: 1.5 mg/kg 45 minutes following occlusion
Description: Cardiac tissue was prepared from mice following VEGF injection or 3-24 hours following ischemia and the infarct, the peri-infarct, and remote regions were sectioned. Tissue was fixed in 0.1 M sodium cacodylate buffer (pH 7.3) containing 4% paraformaldehyde+1.5% glutaraldehyde for 2 hours, transferred to 5% glutaraldehyde overnight, then 1% osmium tetroxide for 1 hour. Blocks were washed, dehydrated, cleared in propylene oxide, infiltrated with Epon/Araldite, and embedded in resin. Ultrathin sections were stained with uranyl acetate and lead citrate, and viewed using a Philips CM-100 transmission electron microscope.

[8] = tested on: Flk-cadherin-catenin complex; assay: In vivo permeability model: immunoprecipitation/immunoblotting after VEGF injection; conditions: mice pretreated before VEGF injection; FIG. 20D
Description: At the appropriate time, the heart was rapidly excised and homogenized in 3 ml RIPA lysis buffer as previously described (Eliceiri et al. Mol. Cell 4: 915-924 (1999)) and the protein concentration measured (BCA Protein Assay; Pierce, Rockford, Ill.).
Tissue lysates were prepared for immunoprecipitation and immunoblotting as previously described (Eliceiri et al. Mol. Cell 4: 915-924 (1999)) with antibodies from Santa Cruz Biotechnology (Santa Cruz, Calif.): Flk (sc315), VE-cadherin (sc6458), β-catenin (sc7963), and P-Tyrosine (sc7020 or sc508). Representative data from at least three separate experiments is shown.
(Data is representative of at least three experiments.)
Heart lysates prepared from animals injected with or without VEGF were subjected to immunoprecipitation with anti-Flk followed by immunoblotting for VE-cadherin and β-catenin. In control mice, a pre-existing complex between Flk, β-catenin, and VE-cadherin in blood vessels was observed. This complex was rapidly disrupted within 2-5 minutes following VEGF stimulation, and had reassembled by 15 minutes in blood vessels in vivo. The timescale of complex dissociation completely paralleled that of Flk, β-catenin, and VE-cadherin phosphorylation and the dissociation of β-catenin from VE-cadherin.

[9] = tested on: VEGF; assay: Immunohistochemistry for VEGF in hearts 24 hours after MI; type: in vivo, rat; conditions: 24 hours after induction of MI; FIGS. 2A and 2B
Description: FIGS. 2A and 2B show the results of an immunohistochemistry assay for VEGF on rat heart samples 24 hours after induction of myocardial infarction, with VEGF+ and ischemic regions indicated.

[10] = tested on: mice; conditions: mouse, in vivo; cited from earlier work
[11] = tested on: 2-year-old C57 black mice; assay: Survival after MI in 2-year-old mice
Description: 2-year-old C57/ByJ mice were used as a model of severe MI to test the effects of Src inhibition on survival. […] Adult male Sprague-Dawley rats (Harlan, Indianapolis, Ind.) and C57/ByJ mice (Jackson Laboratory, Bar Harbor, Me.) were maintained under approved protocols.
MI was induced in mice. […] Survival rates were assessed.
To evaluate survival after MI, 2-year-old C57 black mice were used as a model characterized by considerable mortality (>40%) after LAD ligation.

[12] = tested on: CML cells; conditions: cited from earlier work
[13] = tested on: Src family kinases Lyn and/or Hck; conditions: cited from earlier work
[14] = individual rat, 1.5 mg/kg i.p., 24 hours after occlusion, 1.5 mg/kg
[15] = individual rat, Table 8, listed as Src-I
[16] = individual rat, Table 8, MRI, listed as Src-I

Structure (SMILES): Cc1ccc(-c2nn(C(C)(C)C)c3ncnc(N)c23)cc1 [PP1]
- maximum inhibition in infarct size ([1]; 1.5 mg/kg i.p. 45 minutes after MI induction, 24 hours post-MI, FIG. 5): 68%
- cardiac tissue 24 hours after induction of MI ([1]; FIG. 1A vs 1B): cardioprotection
- smaller infarct size (maximum benefit) ([1]; additional experiments, administration 45 minutes following occlusion, FIG. 17): 50%
- edema and infarct size, dose dependence ([1]; additional experiments, maximum decrease at 1.5 mg/kg, FIGS. 15 and 16): dose-dependent decreases in edema and infarct size
- protection (infarct size) ([1]; additional experiments, treatment after 6 hours, FIG. 17): 25%
- decrease in infarct size ([1]; given six hours after LAD ligation, FIG. 7): 42%
- decrease in infarct size following permanent occlusion ([1]; permanent occlusion, quoted for comparison with ischemia-reperfusion): 50%
- infarct size following permanent occlusion ([1]; rat): significant reduction of infarct size
- infarct size following permanent occlusion [2]: significant reduction of infarct size
- decreased myocardial water content ([3]; permanent MI, FIG. 8): 5%+/−1.3
- LV volumes with T2>40 ms versus vehicle treated rats ([4]; 24 hours following permanent LAD occlusion, n=2, FIGS. 22A and 22B): a difference between LV volumes with T2>40 ms
- fractional shortening assessed by echocardiography ([5]; 4 weeks post-MI, 1.5 mg/kg i.p., FIG. 11): 33.7%
- favorable effect on regional wall motion ([5]; over 4 weeks, n=8): 9%
- favorable effect on systolic LV diameter ([5]; over 4 weeks, n=8): 16%
- preservation of diastolic left ventricular diameter compared with untreated rats ([5]; over 4 weeks, n=8): 11%
- preservation of fractional shortening compared with untreated rats ([5]; over 4 weeks, n=8 each group): 46%
- % FS (echocardiography), group mean ([6]; 1.5 mg/kg i.p., n=4, 24 hours): 30.6±3.16%
- % infarct/AAR, group mean ([6]; 1.5 mg/kg i.p., n=4, 24 hours): 42.4±3.72 % of AAR
- Area at risk, group mean ([6]; 1.5 mg/kg i.p., n=4, 24 hours): 36.1±9.61
- RWMS (echocardiography), group mean ([6]; 1.5 mg/kg i.p., n=4, 24 hours): 18.5±0.58
- reduction in infarct size following ischemia-reperfusion ([6]; FIG. 14): 18%
- % FS [6, 14]: 34.9% and 28.7% and 27.8% and 30.9%
- AAR [6, 14]: 32.9 and 27.2 and 34.4 and 49.7
- IA/AAR [6, 14]: 42.1 and 42.4 and 47 and 37.9
- LVDd [6, 14]: 0.729 and 0.737 and 0.877 and 0.797
- LVDs [6, 14]: 0.475 and 0.525 and 0.633 and 0.551
- RWMS [6, 14]: 18 (2×) and 19 (2×)
- vascular gaps (ultrastructure) [7]: did prevent vascular gaps
- Cardiac Damage (observations counted) ([7]; 3 hr MI): 2
- EC Injury (observations counted) ([7]; 3 hr MI): 14
- Platelet Activation & Adhesion (observations counted) ([7]; 3 hr MI): 11
- EC Barrier Dysfunction (observations counted) ([7]; 3 hr MI, approximately 250 microvessels): 2
- Cardiac Damage (observations counted) ([7]; 24 hr MI): 9
- EC Barrier Dysfunction (observations counted) ([7]; 24 hr MI): 0
- EC Injury (observations counted) ([7]; 24 hr MI): 15
- Platelet Activation & Adhesion (observations counted) ([7]; 24 hr MI): 1
- myocyte injury (ultrastructure) ([7]; at 24 hours): significant reduction in myocyte injury
- Flk-cadherin-catenin complex after VEGF injection [8]: remains intact
- VEGF expression in the ischemic tissues [9]: did not interfere with VEGF expression
- ischemia and brain damage after stroke [10]: reduce ischemia and brain damage after stroke
- survival within the first 4 weeks ([11]; 1.5 mg/kg 45 minutes post-MI, n=12 each group): 91.7%
- four-week survival rate ([11]; 1.5 mg/kg, FIG. 10): 100%

Structure (SMILES): COc1cc(Nc2c(C#N)cnc3cc(OCCCN4CCN(C)CC4)c(OC)cc23)c(Cl)cc1Cl [SKI-606]
- Water Content, group mean ([3]; SKI-606 study, Example 9): 76.7±2.01
- % water [3, 15]: 78% and 74.4% and 74.1% and 79.1% and 78.7% and 76.6% and 75.8%
- MRI % T2>35, group mean ([4]; SKI-606 study, Example 9): 18.4±8.85%
- (%) T2 > 35 [4, 16]: 27.518% and 13.699% and 13.287% and 28.257% and 9.198%
- (%) T2 > 40 [4, 16]: 17.955% and 5.743% and 7.537% and 19.466% and 5.719%
- T2 > 40 ([4]; individual rat, Table 9 summary, listed as Src-I): 19.466 and 5.719 and 17.955 and 5.743 and 7.537
- decrease in infarct size in the ischemia-reperfusion model ([6]; 5 mg/kg, FIG. 19): 43%
- % infarct/AAR, group mean ([6]; SKI-606 study, Example 9): 54.8±2.45 % of AAR
- Area at risk, group mean ([6]; SKI-606 study, Example 9): 37.9±2.76
- RWMS (echocardiography), group mean ([6]; SKI-606 study, Example 9): 21.3±1.25
- fractional shortening and regional wall motion score ([6]; after 24 hours, n=7 each group): favorably impacted fractional shortening and regional wall motion score
- % FS [6, 15]: 21.6%
- AAR [6, 15]: 38.6 and 35.2 and 36.7 and 42.3 and 36.5
- Dd [6, 15]: 0.873 and 0.881 and 0.703 and 0.805 and 0.865 and 0.669 and 0.89
- Ds [6, 15]: 0.661 and 0.669 (3×) and 0.619 and 0.678 and 0.513
- IA/AAR [6, 15]: 58.6 and 55.5 and 54.5 and 52.4 and 53
- RW MS [6, 15]: 20 (2×) and 21 (3×) and 23 (2×)
- antiproliferative activity against CML cells in culture [12]: potent antiproliferative activity
- phosphorylation of the autoactivation site of Lyn and/or Hck [13]: reduces phosphorylation
